Measured values: article PMC11129975, “A first-in-human phase I study of TAS-117, an allosteric AKT inhibitor, in patients with advanced solid tumors” (Cancer Chemotherapy and Pharmacology, 2024)

Assay: Phase I safety: adverse events, adverse drug reactions, DLTs in patients with advanced solid tumors
Assay type: in vivo, human
Conditions: for Adverse drug reactions: ALT increased / Adverse drug reactions: AST increased / Adverse drug reactions: Any events / Adverse drug reactions: Blood AP increased / Adverse drug reactions: Decreased appetite / Adverse drug reactions: Diarrhea / Adverse drug reactions: Dry skin / Adverse drug reactions: GGT increased / Adverse drug reactions: GI disorders / Adverse drug reactions: General disorders and administration site conditions / Adverse drug reactions: Hyperglycemia / Adverse drug reactions: Investigations / Adverse drug reactions: Metabolism and nutrition disorders / Adverse drug reactions: Nausea / Adverse drug reactions: Neutrophil count decreased / Adverse drug reactions: Pruritus / Adverse drug reactions: Pyrexia / Adverse drug reactions: Rash maculo-papular / Adverse drug reactions: Skin and SC tissue disorders / Adverse drug reactions: Stomatitis / Adverse drug reactions: Vomiting / Adverse drug reactions: WBC count decreased / Adverse events: ALT increased / Adverse events: AST increased / Adverse events: Any events / Adverse events: Blood AP increased / Adverse events: Decreased appetite / Adverse events: Diarrhea / Adverse events: Dry skin / Adverse events: GGT increased / Adverse events: GI disorders / Adverse events: General disorders and administration site conditions / Adverse events: Hyperglycemia / Adverse events: Investigations / Adverse events: Metabolism and nutrition disorders / Adverse events: Nausea / Adverse events: Neutrophil count decreased / Adverse events: Pruritus / Adverse events: Pyrexia / Adverse events: Rash maculo-papular / Adverse events: Skin and SC tissue disorders / Adverse events: Stomatitis / Adverse events: Vomiting / Adverse events: WBC count decreased: DEP n = 12
From the text: This was a phase I, open-label, non-randomized, dose-escalating first-in-human study to evaluate the safety, pharmacokinetics, antitumor activity, pharmacodynamics, and pharmacogenomics of TAS-117 in patients with advanced solid tumors. The study had three phases: a dose escalation phase (DEP), a regimen modification phase (RMP), and a safety assessment phase (SAP). The treatment cycle on each regimen lasted 21 days. The DEP used an accelerated titration and 3 + 3 design. TAS-117 was administered orally once daily (QD) on an empty stomach (1 h before or 2 h after a meal). Dosing was determined based on a 4-week repeated oral-dose toxicology study in monkeys (data on file, Taiho Pharmaceutical Co., Ltd.); the highest non-severely toxic dose was 1.2 mg/kg/day, which was converted to 3.84 mg/body/day, or 2.4 mg/m^2. Therefore, the starting dose was determined to be ≤ 2.4 mg/m^2. At dose level 1, TAS-117 was administered at 2 mg QD (Day − 2), and the dose was increased to 4 mg QD after 2 days (Day 1). The RMP was conducted according to a 3 + 3 design. During this phase, the dose regimen was changed from QD administration to intermittent dosing of daily TAS-117 with 4 days on/3 days off. TAS-117 was administered on an empty stomach. Dose-limiting toxicities (DLTs) were evaluated in Cycle 1 of the DEP and RMP. […] The RD and regimen for the SAP were determined based on the safety, pharmacokinetics, pharmacodynamics, and antitumor activity profile determined in the DEP and RMP. During the SAP, the safety and preliminary efficacy profiles of TAS-117 were assessed at the RD and recommended regimen. Three cohorts were included in this assessment. Cohort 1 included patients with endometrial cancer with a PIK3CA mutation; cohort 2 included patients with endometrial cancer with an AKT1 mutation, AKT1 amplification, or AKT2 amplification; and cohort 3 included patients with ovarian clear cell carcinoma.
The primary endpoints were the proportion of patients who experienced DLTs in Cycle 1 of the DEP and RMP and the incidence of adverse events (AEs) and adverse drug reactions (ADRs) in the SAP. AEs and ADRs were coded using the Medical Dictionary for Regulatory Activities (MedDRA; version 24.1) and graded according to the National Cancer Institute Common Terminology Criteria for Adverse Events (CTCAE; version 4.03). Secondary endpoints were pharmacokinetic findings, changes in the ratio of phosphorylated PRAS40 (pPRAS40)/total PRAS40 from baseline, efficacy, and pharmacogenomics findings.

With `C[C@]1(O)C[C@@](N)(c2ccc(-c3nc4n(c3-c3ccccc3)COc3ccncc3-4)cc2)C1` [TAS-117] the “Grade 2 maculopapular rash requiring study interruption” value (DEP dose level 4 (24 mg QD)) was “All patients”, the “Adverse drug reactions: ALT increased” value (All grade) was 1 (8.3) n (%) and the “Adverse drug reactions: AST increased” value (All grade) was 1 (8.3) n (%). For the same compound, the “Adverse drug reactions: Any events” value (All grade) was 11 (91.7) n (%), the “Adverse drug reactions: Blood AP increased” value (All grade) was 1 (8.3) n (%) and the “Adverse drug reactions: Decreased appetite” value (All grade) was 2 (16.7) n (%). The “Adverse drug reactions: Diarrhea” value (All grade) was 1 (8.3) n (%), the “Adverse drug reactions: Dry skin” value (All grade) was 0 (0.0) n (%) and the “Adverse drug reactions: GGT increased” value (All grade) was 1 (8.3) n (%). The “Adverse drug reactions: GI disorders” value (All grade) was 4 (33.3) n (%), the “Adverse drug reactions: General disorders and administration site conditions” value (All grade) was 2 (16.7) n (%) and the “Adverse drug reactions: Hyperglycemia” value (All grade) was 4 (33.3) n (%). The “Adverse drug reactions: Investigations” value (All grade) was 5 (41.7) n (%), the “Adverse drug reactions: Metabolism and nutrition disorders” value (All grade) was 5 (41.7) n (%) and the “Adverse drug reactions: Nausea” value (All grade) was 1 (8.3) n (%). For the same compound, the “Adverse drug reactions: Neutrophil count decreased” value (All grade) was 3 (25.0) n (%), the “Adverse drug reactions: Pruritus” value (All grade) was 1 (8.3) n (%) and the “Adverse drug reactions: Pyrexia” value (All grade) was 1 (8.3) n (%). The “Adverse drug reactions: Rash maculo-papular” value (All grade) was 9 (75.0) n (%), the “Adverse drug reactions: Skin and SC tissue disorders” value (All grade) was 11 (91.7) n (%) and the “Adverse drug reactions: Stomatitis” value (All grade) was 3 (25.0) n (%). For the same compound, the “Adverse drug reactions: Vomiting” value (All grade) was 2 (16.7) n (%), the “Adverse drug reactions: WBC count decreased” value (All grade) was 3 (25.0) n (%) and the “Adverse events: ALT increased” value (All grade) was 3 (25.0) n (%). For the same compound, the “Adverse events: AST increased” value (All grade) was 3 (25.0) n (%), the “Adverse events: Any events” value (All grade) was 11 (91.7) n (%) and the “Adverse events: Blood AP increased” value (All grade) was 2 (16.7) n (%). For the same compound, the “Adverse events: Decreased appetite” value (All grade) was 5 (41.7) n (%), the “Adverse events: Diarrhea” value (All grade) was 3 (25.0) n (%) and the “Adverse events: Dry skin” value (All grade) was 0 (0.0) n (%). For the same compound, the “Adverse events: GGT increased” value (All grade) was 2 (16.7) n (%), the “Adverse events: GI disorders” value (All grade) was 7 (58.3) n (%) and the “Adverse events: General disorders and administration site conditions” value (All grade) was 5 (41.7) n (%). The “Adverse events: Hyperglycemia” value (All grade) was 4 (33.3) n (%), the “Adverse events: Investigations” value (All grade) was 6 (50.0) n (%) and the “Adverse events: Metabolism and nutrition disorders” value (All grade) was 9 (75.0) n (%). The “Adverse events: Nausea” value (All grade) was 2 (16.7) n (%), the “Adverse events: Neutrophil count decreased” value (All grade) was 3 (25.0) n (%) and the “Adverse events: Pruritus” value (All grade) was 1 (8.3) n (%). For the same compound, the “Adverse events: Pyrexia” value (All grade) was 1 (8.3) n (%), the “Adverse events: Rash maculo-papular” value (All grade) was 9 (75.0) n (%) and the “Adverse events: Skin and SC tissue disorders” value (All grade) was 11 (91.7) n (%). The “Adverse events: Stomatitis” value (All grade) was 3 (25.0) n (%), the “Adverse events: Vomiting” value (All grade) was 3 (25.0) n (%) and the “Adverse events: WBC count decreased” value (All grade) was 3 (25.0) n (%). For the same compound, the “Adverse drug reactions: ALT increased” value (≥ Grade 3) was 0 (0.0) n (%), the “Adverse drug reactions: AST increased” value (≥ Grade 3) was 0 (0.0) n (%) and the “Adverse drug reactions: Any events” value (≥ Grade 3) was 3 (25.0) n (%). The “Adverse drug reactions: Blood AP increased” value (≥ Grade 3) was 0 (0.0) n (%), the “Adverse drug reactions: Decreased appetite” value (≥ Grade 3) was 0 (0.0) n (%) and the “Adverse drug reactions: Diarrhea” value (≥ Grade 3) was 0 (0.0) n (%). The “Adverse drug reactions: Dry skin” value (≥ Grade 3) was 0 (0.0) n (%), the “Adverse drug reactions: GGT increased” value (≥ Grade 3) was 0 (0.0) n (%) and the “Adverse drug reactions: GI disorders” value (≥ Grade 3) was 0 (0.0) n (%). For the same compound, the “Adverse drug reactions: General disorders and administration site conditions” value (≥ Grade 3) was 0 (0.0) n (%), the “Adverse drug reactions: Hyperglycemia” value (≥ Grade 3) was 2 (16.7) n (%) and the “Adverse drug reactions: Investigations” value (≥ Grade 3) was 1 (8.3) n (%). The “Adverse drug reactions: Metabolism and nutrition disorders” value (≥ Grade 3) was 2 (16.7) n (%), the “Adverse drug reactions: Nausea” value (≥ Grade 3) was 0 (0.0) n (%) and the “Adverse drug reactions: Neutrophil count decreased” value (≥ Grade 3) was 0 (0.0) n (%). For the same compound, the “Adverse drug reactions: Pruritus” value (≥ Grade 3) was 0 (0.0) n (%), the “Adverse drug reactions: Pyrexia” value (≥ Grade 3) was 0 (0.0) n (%) and the “Adverse drug reactions: Rash maculo-papular” value (≥ Grade 3) was 0 (0.0) n (%). For the same compound, the “Adverse drug reactions: Skin and SC tissue disorders” value (≥ Grade 3) was 0 (0.0) n (%), the “Adverse drug reactions: Stomatitis” value (≥ Grade 3) was 0 (0.0) n (%) and the “Adverse drug reactions: Vomiting” value (≥ Grade 3) was 0 (0.0) n (%). For the same compound, the “Adverse drug reactions: WBC count decreased” value (≥ Grade 3) was 1 (8.3) n (%), the “Adverse events: ALT increased” value (≥ Grade 3) was 0 (0.0) n (%) and the “Adverse events: AST increased” value (≥ Grade 3) was 1 (8.3) n (%). The “Adverse events: Any events” value (≥ Grade 3) was 3 (25.0) n (%), the “Adverse events: Blood AP increased” value (≥ Grade 3) was 1 (8.3) n (%) and the “Adverse events: Decreased appetite” value (≥ Grade 3) was 0 (0.0) n (%). For the same compound, the “Adverse events: Diarrhea” value (≥ Grade 3) was 0 (0.0) n (%), the “Adverse events: Dry skin” value (≥ Grade 3) was 0 (0.0) n (%) and the “Adverse events: GGT increased” value (≥ Grade 3) was 1 (8.3) n (%). The “Adverse events: GI disorders” value (≥ Grade 3) was 0 (0.0) n (%), the “Adverse events: General disorders and administration site conditions” value (≥ Grade 3) was 0 (0.0) n (%) and the “Adverse events: Hyperglycemia” value (≥ Grade 3) was 2 (16.7) n (%). For the same compound, the “Adverse events: Investigations” value (≥ Grade 3) was 3 (25.0) n (%), the “Adverse events: Metabolism and nutrition disorders” value (≥ Grade 3) was 2 (16.7) n (%) and the “Adverse events: Nausea” value (≥ Grade 3) was 0 (0.0) n (%). The “Adverse events: Neutrophil count decreased” value (≥ Grade 3) was 0 (0.0) n (%), the “Adverse events: Pruritus” value (≥ Grade 3) was 0 (0.0) n (%) and the “Adverse events: Pyrexia” value (≥ Grade 3) was 0 (0.0) n (%). The “Adverse events: Rash maculo-papular” value (≥ Grade 3) was 0 (0.0) n (%), the “Adverse events: Skin and SC tissue disorders” value (≥ Grade 3) was 0 (0.0) n (%) and the “Adverse events: Stomatitis” value (≥ Grade 3) was 0 (0.0) n (%). For the same compound, the “Adverse events: Vomiting” value (≥ Grade 3) was 0 (0.0) n (%), the “Adverse events: WBC count decreased” value (≥ Grade 3) was 1 (8.3) n (%) and the “Recommended dose (RD)” value (QD dosing, patients with advanced or metastatic solid tumors) was 16 mg. For the same compound, the DLTs (RMP dose level 4 (24 mg), intermittent administration) was “No DLTs”.
